{"source": "patent US11213499B1", "about": "“Use of 3,3′-diselenodipropionic acid (DSePA) as an anticancer agent” (Secretary, Department of Atomic Energy, priority 2020, dated 2022)", "key": {"[1]": {"test_system": "WI-38 (Human normal lung fibroblast)", "test": "SRB/MTT assay, normal WI-38 cells", "type": "cell-based", "procedure": "(§1) The anticancer effect of DSePA was evaluated using a panel of twenty-five human cancer cell lines of different tissue origins. Cells were treated with the increasing concentrations (0.1-100 μM) of DSePA for 48 h and viability was monitored by (Sulforhodamine B) SRB assay or MTT assay.\n(§2) Cell culture and DSePA synthesis—DSePA was synthesized and characterized as described in our previous reports. Cell lines were cultured in growth medium (DMEM/RPMI) supplemented with 10% FBS, 100 U/ml penicillin and 100 μg/ml streptomycin at 37° C. in a humidified 5% CO2 environment. The stock solution of DSePA was prepared fresh in cell culture medium and diluted with the same to achieve the desired concentrations.\n(§3) SRB/MTT Assay—To evaluate the anti-proliferative effect of DSePA, Cells (˜5×10^3) suspended in 100 μl of complete culture medium were seeded in each well of 96 well plates. The cells were allowed to attach and grow for 24 h, treated with desired concentrations of DSePA dissolved in culture medium for 48 h and then processed for SRB/MTT assay as described in literature. The percentage (%) cytotoxicity was calculated from the decrease in absorbance as compared to that of control group."}, "[2]": {"test_system": "CHO (Chinese Hamster Ovary (normal))", "test": "SRB/MTT assay, normal CHO cells", "type": "cell-based", "procedure": "as §1, §2, §3"}}}
{"smiles": "O=C(O)CC[Se][Se]CCC(=O)O", "note": "[DSePA, 3,3′-diselenodipropionic acid]", "values": [{"measurement": "GI50", "setting": "[1]; Homo sapiens, WI-38 normal cells, 48 hours treatment, SRB/MTT assay, read-out: GI50 (Concentration of drug causing 50% inhibition of cell growth)", "value": "> 100", "unit": "µM"}, {"measurement": "toxicity in normal cell types", "setting": "[1]; WI-38, 0.1-100 μM, 48 h", "value": "did not show toxicity"}, {"measurement": "toxicity in normal cell types", "setting": "[2]; CHO, 0.1-100 μM, 48 h", "value": "did not show toxicity"}, {"measurement": "GI50", "setting": "[2]; Cricetulus griseus, CHO normal cells, 48 hours treatment, SRB/MTT assay, read-out: GI50 (Concentration of drug causing 50% inhibition of cell growth)", "value": "> 100", "unit": "µM"}]}
